The record followed here is US9371328B2, “Imidazopyridazinecarbonitriles useful as kinase inhibitors” (BRISTOL-MYERS SQUIBB COMPANY, priority 2008, dated 2016).

Read-outs that look alike come from different tables or passages of the source.

One assay deals with HCT116. The assay can be described thus: Cell proliferation inhibition assay (MTT/MTS). It is filed as cell-based. To be noted: Homo sapiens, HCT-116, Table 1, 72 h with compound. How it is done:
Compounds were evaluated for their ability to inhibit cell proliferation, using an assay that measures mitochondrial metabolic activity, that is directly correlated with cell numbers. Cells were plated at 2000 cells/well in 96-well plates and were cultured for 24 h in RPMI-1640 supplemented with 2% fetal bovine serum, before test compounds were added. Compounds were diluted in culture medium such that the final concentration of dimethyl sulfoxide never exceeded 1%. Following the addition of compounds, the cells were cultured for an additional 72 h before cell viability was determined by measuring the conversion of 3-(4,5-dimethylthiazol-2-yl)-2,5-diphenyltetrazolium bromide (MTT) dye using the CellTiter96 kit (Promega) or by measuring the conversion of [3-(4,5-dimethylthiazol-2-yl)-5-(3-carboxymethoxyphenyl)-2-(4-sulfophenyl)-2H-tetrazolium (MTS) dye using the CELLTITER 96® AQueous (Promega).

The next assay deals with T1, CK2A1 (CK2α/β) (Homo sapiens, UniProt P68400).
T1 construct: made in house
T1 sequence (P68400 whole entry, species assumed): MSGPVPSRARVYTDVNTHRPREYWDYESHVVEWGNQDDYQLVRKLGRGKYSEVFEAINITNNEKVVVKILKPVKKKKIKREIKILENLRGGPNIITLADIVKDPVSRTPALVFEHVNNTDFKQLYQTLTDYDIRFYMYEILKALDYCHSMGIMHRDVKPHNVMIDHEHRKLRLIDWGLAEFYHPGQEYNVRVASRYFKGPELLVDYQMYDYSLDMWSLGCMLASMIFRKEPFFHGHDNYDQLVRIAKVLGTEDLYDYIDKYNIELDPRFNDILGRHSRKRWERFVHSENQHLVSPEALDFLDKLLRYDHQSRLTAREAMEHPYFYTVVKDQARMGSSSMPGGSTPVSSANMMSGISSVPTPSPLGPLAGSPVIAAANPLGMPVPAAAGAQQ
T1 sequence (P67870 whole entry partner, species assumed): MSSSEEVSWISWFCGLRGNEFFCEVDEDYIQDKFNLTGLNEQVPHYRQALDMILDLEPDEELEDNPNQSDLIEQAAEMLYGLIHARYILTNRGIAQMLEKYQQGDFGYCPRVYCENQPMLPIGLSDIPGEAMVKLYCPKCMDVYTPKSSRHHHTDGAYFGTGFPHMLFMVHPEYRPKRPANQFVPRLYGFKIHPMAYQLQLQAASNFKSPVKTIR
The assay can be described thus: CK2 kinase assay, CK2A1 (CK2α/β). It counts as biochemical. How it is done:
(§1) The effectiveness of compounds of the present invention as inhibitors of protein kinases can be readily tested by assays known to those skilled in the art. For example, in vitro protein kinase assays may be conducted with a relevant purified protein kinase and an appropriate synthetic substrate to determine the inhibitory activity of the compounds. […] Reaction mixtures were incubated at 30° C. for 1 hour, and reaction products were captured by binding to phosphocellulose (P81) filter plates. Incorporation of radioactive phosphate into the peptide substrate was determined by liquid scintillation counting. The potency of compounds in inhibiting CK2 is expressed as IC50, defined as the concentrations of compounds required to inhibit the enzymatic activity by 50%.
(§2) The inhibitory activity of the instant compounds may also be measured by recombinant CK2 holoenzyme kinase assays. The assays were performed in U-bottom 384-well plates. The final assay volume was 30 μl prepared from 15 μl additions of enzyme and substrates (fluoresceinated peptide FL-RRRADDSDDDDD-NH2 and ATP) and test compounds in assay buffer (20 mM HEPES pH 7.4, 10 mM MgCl2, 100 mM NaCl, 0.015% Brij35 and 0.25 mM DTT). The reaction was initiated by the combination of bacterially expressed, CK2 α/β or CK2 α′/β holoenzyme with substrates and test compounds. The reaction was incubated at room temperature for 60 minutes and terminated by adding 30 μl of 35 mM EDTA to each sample. The reaction mixture was analyzed on the Caliper LABCHIP® 3000 (Caliper, Hopkinton, Mass.) by electrophoretic separation of the fluorescent substrate and phosphorylated product. Inhibition data were calculated by comparison to no enzyme control reactions for 100% inhibition and vehicle-only reactions for 0% inhibition. The final concentration of reagents in the CK2 α/β assay was 25 μM ATP, 1.5 μM FL-RRRADDSDDDDD-NH2, […] CK2 α/β holoenzyme, and 1.6% DMSO. The final concentration of reagents in the CK2 α′/β assay was 10 μM ATP, 1.5 μM FL-RRRADDSDDDDD-NH2, 100 pM CK2 α′/β holoenzyme, and 1.6% DMSO. Dose response curves were generated to determine the concentration required inhibiting 50% of kinase activity (IC50). Compounds were dissolved at 10 mM in dimethylsulfoxide (DMSO) and evaluated at eleven concentrations. IC50 values were derived by non-linear regression analysis.

For a further assay, the target named is T2, CK2A2 (CK2α′/β) (Homo sapiens, UniProt P19784).
T2 construct: made in house
T2 sequence (P19784 whole entry, species assumed): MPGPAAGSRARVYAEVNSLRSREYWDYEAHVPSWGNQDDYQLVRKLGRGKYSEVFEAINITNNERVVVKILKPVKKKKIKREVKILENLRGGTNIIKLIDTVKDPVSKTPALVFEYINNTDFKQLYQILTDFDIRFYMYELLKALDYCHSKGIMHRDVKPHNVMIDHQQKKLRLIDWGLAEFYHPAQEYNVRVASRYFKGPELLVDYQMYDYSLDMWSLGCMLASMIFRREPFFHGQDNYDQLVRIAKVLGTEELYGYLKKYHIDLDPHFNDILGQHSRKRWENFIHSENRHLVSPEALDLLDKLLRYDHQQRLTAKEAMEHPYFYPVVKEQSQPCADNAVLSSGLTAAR
T2 sequence (P67870 whole entry partner, species assumed): as the sequence (P67870 whole entry partner, species assumed) above
In words: CK2 kinase assay, CK2A2 (CK2α′/β). It counts as biochemical. How it is done: as §1, §2

Where [1] appears, read: Table 1, read-out: CK2A1 (CK2α/β) (IC50).
[2] abbreviates: Table 1, read-out: CK2A2 (CK2α′/β) (IC50).
The mark [3] stands for this setting: Table 2, comparison compounds of US 2008/0045536, read-out: CK2A1 IC50.
[4] abbreviates: Table 2, comparison compounds of US 2008/0045536, read-out: CK2A2 IC50.

For the molecule `CC(=O)Nc1cc(Nc2cc(NC3CC3)c3ncc(C#N)n3n2)ccc1C` [Example 1, N-(5-((3-Cyano-8-(cyclopropylamino)imidazo[1,2-b]pyridazin-6-yl)amino)-2-methylphenyl)acetamide], the IC50 stood at 30 nM in the assay on HCT116, 6 nM on CK2A1 (CK2α/β) (setting [1]) and 7.5 nM at CK2A2 (CK2α′/β) (setting [2]).
Turning to `N#Cc1ccc(Nc2cc(NC3CC3)c3ncc(C#N)n3n2)cc1C(F)(F)F` [Example 31, 6-((4-Cyano-3-(trifluoromethyl)phenyl)amino)-8-(cyclopropylamino)imidazo [1,2-b]pyridazine-3-carbonitrile], the IC50 with HCT116 was found to be 460 nM; at CK2A1 (CK2α/β) (setting [1]), 143 nM; on CK2A2 (CK2α′/β) (setting [2]) it was 25.7 nM.
For `COc1cc(Nc2cc(NC3CC3)c3ncc(C#N)n3n2)cc(-n2nnnc2C)c1` [Example 37, 8-(Cyclopropylamino)-6-((3-methoxy-5-(5-methyl-1H-tetrazol-1-yl)phenyl)amino) imidazo[1,2-b]pyridazine-3-carbonitrile], in that order: 163 nM, 11 nM and 4.5 nM.
On to `N#Cc1cnc2c(NC3CC3)cc(Nc3cccc(C(=O)O)c3)nn12` [Example 44, 3-((3-Cyano-8-(cyclopropylamino)imidazo [1,2-b]pyridazin-6-yl)amino) benzoic acid], for which the IC50 in the assay on HCT116 is greater than 1000 nM; on CK2A1 (CK2α/β) (setting [1]), 1310 nM; at CK2A2 (CK2α′/β) (setting [2]), 35.1 nM.
For the molecule `N#Cc1cnc2c(NC3CC3)cc(Nc3ccc(F)c(-n4cnnc4)c3)nn12` [Example 46, 8-(Cyclopropylamino)-6-((4-fluoro-3-(4H-1,2,4-triazol-4-yl)phenyl)amino)imidazo [1,2-b]pyridazine-3-carbonitrile], the IC50 was 150 nM in the assay on HCT116, 4.3 nM on CK2A1 (CK2α/β) (setting [1]) and 2.4 nM at CK2A2 (CK2α′/β) (setting [2]).
As for `N#Cc1ccc(Cl)c(Nc2cc(NC3CC3)c3ncc(C#N)n3n2)c1` [Example 47, 6-((2-Chloro-5-cyanophenyl)amino)-8-(cyclopropylamino) imidazo[1,2-b]pyridazine-3-carbonitrile], the IC50 in the assay on HCT116 stood at 41 nM; at CK2A1 (CK2α/β) (setting [1]), 7.4 nM; on CK2A2 (CK2α′/β) (setting [2]), 5.2 nM.
In the case of `Cn1cnnc1-c1cccc(Nc2cc(NC3CC3)c3ncc(C#N)n3n2)c1` [Example 48, 8-(Cyclopropylamino)-6-((3 - (4-methyl-4H-1,2,4-triazol-3-yl)phenyl)amino) imidazo[1,2-b]pyridazine-3-carbonitrile], the IC50 with HCT116 stood at 460 nM; at CK2A1 (CK2α/β) (setting [1]) it was 417 nM; at CK2A2 (CK2α′/β) (setting [2]), 106 nM.
As for `COc1ccc(Nc2cc(NC3CC3)c3ncc(C#N)n3n2)cc1OC` [Example 56, 8-(Cyclopropylamino)-6-((3,4-dimethoxyphenyl)amino)imidazo[1,2-b] pyridazine-3-carbonitrile], the IC50 worked out at 482 nM in the assay on HCT116, 155 nM on CK2A1 (CK2α/β) (setting [1]) and 35.9 nM on CK2A2 (CK2α′/β) (setting [2]).
For `N#Cc1cnc(Nc2cc(NC3CC3)c3ncc(C#N)n3n2)s1` [Example 57, 6-((5-Cyano-1,3-thiazol-2-yl)amino)-8-(cyclopropylamino) imidazo[1,2-b]pyridazine-3-carbonitrile], in that order: 521 nM, 310 nM and 58.2 nM.
Regarding `CCOc1ccc(Nc2cc(N[C@H]3CC[C@H](N)CC3)nn3ccnc23)cc1` [I(1), reference compound], the IC50 on CK2A1 (CK2α/β) (setting [3]) was greater than 50000 nM.
Consider `N[C@H]1CC[C@H](Nc2cc(Nc3ccccc3)c3nccn3n2)CC1` [I(7), reference compound], for which the IC50 at CK2A1 (CK2α/β) (setting [3]) and at CK2A2 (CK2α′/β) (setting [4]) was greater than 50000 nM in each case.
Take `Cc1ccc(Nc2cc(N[C@H]3CC[C@H](N)CC3)nn3ccnc23)nc1` [II(16), reference compound]: the IC50 at CK2A1 (CK2α/β) (setting [3]) is greater than 50000 nM; at CK2A2 (CK2α′/β) (setting [4]), 31800 nM.
Turning to `Cc1c(N[C@H]2CC[C@H](N)CC2)nn2c(C#N)cnc2c1Nc1ccccc1` [XXV(1), reference compound], the IC50 on CK2A1 (CK2α/β) (setting [3]) turned out to be 2690 nM; at CK2A2 (CK2α′/β) (setting [4]), 8090 nM.
